Where two headings read alike, the source gives them in different places. Blank lines part the entries; values can stand above or below the compound they belong to.
Legend:
[1] = tested on: reverse transcriptase; details: cited from earlier work
[2] = tested on: AIDS; details: cited from earlier work
[3] = tested on: p24 gag protein of HIV; details: in vitro; Mitsuya et al. 1985; cited from earlier work
[4] = tested on: peripheral blood lymphocytes; test: uptake of radiolabelled drug by peripheral blood lymphocytes (PBL); type: in vitro ADME
Procedure: DP-AZT was therefore tested to determine if the problem of rapid elimination and inadequate permeability could be overcome.
PBL from HIV seronegative donors were also separated by standard Ficol-Hypaque gradient centrifugation. The lymphocytes were grown in RPMI 1640 supplemented with 15% heat-inactivated FBS, 100 U/ml penicillin, 100 μg/ml streptomycin and 2 μg/ml PHA. The cells were incubated for 4 days at 37° C. and uptake studies were done according to the procedure described above for H9 cells.

[5] = tested on: HIV-1; test: inhibition of HIV-1 replication in PBL (p24 antigen in culture supernatant); type: cell-based; details: for P24 antigen in culture supernatant: drug-free control 372,835 pg/ml
Procedure: The concentration of virus-specificp24 antigen in the culture, and, therefore the ability of each drug to inhibit HIV replication was measured by their ability to inhibit production of the p24 antigen.
Inhibition of HIV-1 replication was determined using PBL from seronegative donors. PBL activated with 2 μg/ml PHA for 72 hrs were washed with medium and 10×10^6 cells were incubated for 4 hr at 37° C. (Mitsuya et al., PNAS USA 82:7096, […]) in 5 ml medium containing the appropriate concentration of the drug. The cells were then infected with 10^4 TCID50 of HIV (isolated CD 451) by the addition of 0.1 ml of virus preparation and gentle rocking of the cultures of 15 min intervals for 90 min at room temperature. The fluid volume was increased to 10ml and the cultures maintained at 37° C. in a humidified 5% CO2 -in-air atmosphere. On day 3 post-infection, half the cell-free fluid in each culture was removed and replaced with fresh medium containing the respective drug. The extent of HIV replication in a control and the experimental cultures was evaluated 7 days post-infection by quantifying the concentration of HIV-specific p24 antigen in an undiluted and 5-fold serial dilutions of the culture supernatants using commercial antigen-capture assay kits (DuPont, Billerica, Mass.). The concentration of HIV-specific p24 antigen in the 7 day supernatant fluid of a drug-free control culture was 372,835 pg/ml.

[6] = Richman et al. 1987; cited from earlier work
[7] = in vivo; cited from earlier work
[8] = tested on: H9 cells; test: uptake of radiolabelled drug by H9 cells; type: in vitro ADME; details: for cellular uptake relative to AZT, in words: H9 cells (FIGS. 6, 7)
Procedure: The reaction was stopped by centrifugation at 13,000×g for 1 min. The cell free supernatant was discarded by aspiration and the cell pellet was washed with ice cold PBS to remove any traces of free radioactive drug. The cell pellet was resuspended in PBS and counted for radioactivity in a Tri-carb Packard liquid scintillation analyzer Model 1500 (Packard Instruments Co., Dowers Grove, Ill.) and the percentage of radioactivity was calculated. (All experiments were done in duplicate and repeated at least three times).

[9] = hydrolysis of DP-AZT in mouse bone marrow cells; type: in vitro ADME; details: end of 4 hours of incubation, read-out: hydrolysis of the pro-drug
Procedure: (§1) In contrast, bone marrow cells were able to hydrolyze only 50% of the pro-drug at the end of 4 hours of incubation.
Bone marrow cells were obtained from femurs of 8-week old CD-1 mice. The femurs were removed asceptically and rinsed in RPMI-1640. Bone marrow cells were flushed with medium by using a 19-gauge needle and a single cell suspension was made by pipette action. These cells were used for hydrolytic experiments similar to described above for PBL.

[10] = hydrolysis of DP-AZT by human plasma in vitro; type: in vitro ADME; details: up to 4 hours in incubation
[11] = physical and chemical stability; type: physicochemical
Text: The general pattern of synthesis of DP-AZT is outlined in FIG. 1. Treatment of 3,-azido-2',3'-dideoxythymidine in the presence of DCC and 4-dimethyl amino pyridine in ethyl acetate yield the nicotinyl ester. The ester is then quarternized by refluxing it in acetone with methyl iodide. […] In addition to DP-AZT, other derivatives at the N-methyl site in particular can also be prepared.

[12] = tested on: mouse bone marrow cells; test: bone marrow toxicity: inhibition of [3H]-thymidine uptake in murine bone marrow cells; type: cell-based; details: for less inhibition of [3H]-thymidine incorporation into bone marrow cells than AZT: relative to AZT, 60 h exposure, 12 h pulse
Procedure: The percent inhibition of [^3 H]-thymidine uptake was used as an indication of bone marrow toxicity (FIG. 5).
The bone marrow cells were obtained from CD-1 mice as described under Section 6.2.3, supra. Approximately 2×10^5 cells in 100 μl of medium were plated in a 96-well plate, 100 μl of drug solution at various concentrations (0-500 μM) was added, and the plate was incubated at 37° C. for 60 hr. [^3 H]-Thymidine (0.2 μc/well, specific activity 30 c/mmole) was pulsed for 12 hr, and at the end of 72 hr cells were harvested by using Skatron 7019 cell harvester.

[13] = tested on: peripheral blood lymphocytes; test: hydrolysis of DP-AZT to AZT in PBL; type: in vitro ADME; details: 500 μM DP-[3H]-AZT, 5×10^5 PBL, 37° C., 4 h
Procedure: as §1
Suspensions of 5×10^5 PBL (100 μl) in Eppendorf tubes were mixed with 100 μl of 500 μM DP-AZT and incubated at 37° C. At various time intervals (0 to 4 hrs), cell pellets were collected after centrifugation at 13,000×g for 1 min, washed with PBS and extracted with ice-cold 0.2 M perchloric acid. The acid extracts were clarified by centrifugation, neutralized with KOH, centrifuged to remove insoluble potassium perchlorate, evaporated to dryness under reduced pressure (Buchler Evapo-Mix apparatus) and constituted with 200 μl of methanol (Zimmerman et al., J. Biol. Chem. 262:5748, 1987).

[14] = hydrolysis of DP-AZT by rat liver microsomes; type: in vitro ADME; details: 15.5 mg protein/ml, 37° C., 0 to 4 h
Procedure: as §1
To 900 μl of rat liver microsomes containing 15.5 mg protein/ml (Wong et al., Biochem. Pharmacol. 37:473, 1988), 100 μl of DP-AZT (2 mg/ml dissolved in dimethylsulfoxide) was added and incubated at 37° C. in a water bath. At various time intervals (0 to 4 h) 100 μl of sample was withdrawn and added immediately to ice-cold methanol (400 μl).

[15] = tested on: HIV; details: Yamamoto et al. 1986; cited from earlier work
[16] = tested on: retrovirally infected mice; details: Watson et al. 1988; cited from earlier work
[17] = 0.5 μM drug, 7 days post-infection
[18] = 5.0 μM drug, 7 days post-infection
[19] = 10.0 μM drug, 7 days post-infection
[20] = Human immunodeficiency virus 1, PBL, 168 h, 0.5 μM drug, 7 days post-infection, read-out: p24 antigen, % reduction of control
[21] = Human immunodeficiency virus 1, PBL, 168 h, 5.0 μM drug, 7 days post-infection, read-out: p24 antigen, % reduction of control
[22] = Human immunodeficiency virus 1, PBL, 168 h, 10.0 μM drug, 7 days post-infection, read-out: p24 antigen, % reduction of control

Compound: Cc1cn([C@H]2C[C@H](N=[N+]=[N-])[C@@H](COP(=O)(O)OP(=O)(O)OP(=O)(O)O)O2)c(=O)[nH]c1=O [AZT triphosphate]
reverse transcriptase inhibition, in words [1]: competitive inhibitor of reverse transcriptase

Compound: Cc1cn([C@H]2C[C@H](N=[N+]=[N-])[C@@H](CO)O2)c(=O)[nH]c1=O [AZT, 3'-azido-2',3'-dideoxythymidine, reference compound]
mortality in comparison with placebo, in words ([2]; Fischl et al. 1987): significant differences in mortality
progression of disease, in words ([2]; individuals with AIDS-related complex, Fischl et al.): delay the progression of the disease
expression of p24 gag protein of HIV, in words [3]: blocks the expression of the p24 gag protein of HIV
time to maximum intracellular concentration ([4]; 5 μM, PBL): 2 h
uptake linearity ([4]; 5 μM, PBL): linear for one hour
P24 antigen in culture supernatant [5, 17]: 67,273 pg/ml
P24 antigen in culture supernatant [5, 18]: 1,758 pg/ml
P24 antigen in culture supernatant [5, 19]: 2,235 pg/ml
inhibition at 0.5 µM [5, 20]: 82%
inhibition at 5 µM [5, 21]: 99.5%
inhibition at 10 µM [5, 22]: 99.4%
major adverse reactions [6]: nausea, myalgia and insomnia
half-life in plasma, in words [7]: very short half-life in plasma
reverse transcriptase inhibition, in words [1]: does not inhibit reverse transcriptase
time to maximum intracellular concentration ([8]; 5 μM, H-9 cells): 2 h
uptake linearity ([8]; 5 μM, H-9 cells): linear for one hour

Compound: Cc1cn([C@H]2C[C@H](N=[N+]=[N-])[C@@H](COC(=O)C3=CN(C)C=CC3)O2)c(=O)[nH]c1=O [DP-AZT, 5,-[(1,4-dihydro-1-methyl-3-pyridinylcarbonyl)oxy] -3,-azido-2',3'dideoxythymidine]
metabolised at 4 h, 500 µM [9]: 50%
hydrolysis by human plasma in vitro [10]: not hydrolyzed
air oxidation stability ([11]; during crystallization and drying): stable compound which does not undergo air oxidation
result of attempted chemical oxidation ([11]; hydrogen peroxide or sodium nitrate solution): hydrolysis of the ester producing AZT
less inhibition of [3H]-thymidine incorporation into bone marrow cells than AZT ([12]; 5 μM): 44%
less inhibition of [3H]-thymidine incorporation into bone marrow cells than AZT ([12]; 10 μM): 59%
bone marrow toxicity relative to AZT, in words ([12]; 5 and 10 μM): significantly less toxic than AZT
time to maximum intracellular concentration ([4]; 5 μM, PBL): 2 h
uptake linearity ([4]; 5 μM, PBL): linear for one hour
higher intracellular concentration than [3H]-AZT ([4]; PBL, 5 μM, relative to AZT): at least 50%
efficacy against HIV-1 relative to AZT, in words ([5]; 0.5 μM): significantly greater efficacy against HIV-1 than AZT had
P24 antigen in culture supernatant [5, 17]: 3,310 pg/ml
P24 antigen in culture supernatant [5, 18]: 475 pg/mL
P24 antigen in culture supernatant [5, 19]: 215 pg/mL
inhibition at 0.5 µM [5, 20]: 99.1%
inhibition at 5 µM [5, 21]: 99.9%
inhibition at 10 µM [5, 22]: 99.9%
inhibition at 0.5 µM ([5]; Human immunodeficiency virus 1, read-out: inhibition (p24 antigen)): 99%
hydrolysis of the pro-drug [13]: complete hydrolysis of the pro-drug within four hours
hydrolysis by rat liver microsomes [14]: hydrolyzed by rat-liver microsomes (FIG. 4) in a manner similar to that observed in PBL
time to maximum intracellular concentration ([8]; 5 μM, H-9 cells): 2 h
uptake linearity ([8]; 5 μM, H-9 cells): linear for one hour
higher intracellular concentration than [3H]-AZT ([8]; H-9 cells, 5 μM, relative to AZT): at least 50%

cellular uptake relative to AZT, in words [8]: improved cellular uptake
Compound: Cc1cn([C@H]2C[C@H](N=[N+]=[N-])[C@@H](COC(=O)CN3CCN(c4ccccc4)CC3)O2)c(=O)[nH]c1=O [N-phenylpiperazine analogue]

Compound: CC1=C(/C=C/C(C)=C/C=C/C(C)=C/C(=O)O)C(C)(C)CCC1 [Retinoic acid]
HIV replication, in words [15]: inhibit HIV replication somewhat

hygroscopicity [11]: hygroscopic
Compound: Cc1cn([C@H]2C[C@H](N=[N+]=[N-])[C@@H](COC(=O)c3ccc[n+](C)c3)O2)c(=O)[nH]c1=O [compound 2]

Compound: Cc1cn([C@H]2C[C@H](N=[N+]=[N-])[C@@H](COC(=O)C(N)Cc3ccccc3)O2)c(=O)[nH]c1=O (some centres unmarked) [phenylalanine AZT analogue]
cellular uptake relative to AZT, in words ([4]; PBL (FIG. 8)): improved over AZT with respect to cellular uptake

Compound: CC1=C(/C=C/C(C)=C/C=C/C(C)=C/C(=O)OC[C@H]2O[C@@H](n3cc(C)c(=O)[nH]c3=O)C[C@@H]2N=[N+]=[N-])C(C)(C)CCC1 [retinoic acid ester of AZT]
cellular uptake relative to AZT, in words [8]: a substantial improvement over cellular uptake of AZT

Compound: Cc1cn([C@H]2C[C@H](N=[N+]=[N-])[C@@H](COC(=O)C(N)Cc3ccc(O)cc3)O2)c(=O)[nH]c1=O (some centres unmarked) [tyrosine AZT analogue]
cellular uptake relative to AZT, in words [8]: improved over AZT with respect to cellular uptake

Compound: Vitamin A
activated macrophages and death rate, in words [16]: increased numbers of activated macrophages and decreased death rate

— patent publication US5026688A (Administrators of the Tulane Educational Fund, priority 1988, dated 1991)
